Measurements taken from patent publication US12729368B2, “Methods and compositions for generating oligodendrocyte progenitor cells” (Trailhead Biosystems Inc., priority 2022, dated 2026).
Values joined by “and” are separate entries in the source; they are usually repeats but may differ in a detail not shown here. Identical values can stand only once.

Assays:
stage 2 early-OPCs [1] = assay: HD-DoE 12-factor model for stage 3 (version 1) on stage 2 early-OPCs; format: cell-based, human
Procedure: In another model, the effects of Activin A and TTNPB along with LDN193189, MHY1485, PDGF-AA, AICAR, FGF2, CHIR99021, DBZ, MK2206, Purmorphamine and T3+T4 were tested on gene profile of differentiating cells. When this model was optimized for maximum expression of SOX10 at 54.7, we observed Activin A again had positive regulatory impact on its expression, with factor contribution of 4.7. Other positive factors included MK2206, with the highest factor contribution at 16.2, MHY1485 at 11.49, CHIR99021 at 9.6, DBZ at 9.3, FGF2 at 3.6 and PDGF-AA, with factor contribution less than 3 (FIG. 20).
In this model, we also investigated the conditions of expression of another important OPC gene, CSPG4 (Goldman and Kuypers (2015) Development 142:3983-95: van Tilborg et al. (2018) Glia 66:221-238).
Dynamic profile analysis was used to better assess the impact of the factors on our selected genes and find the combination set that can optimize their expression (FIG. 22). According to this analysis, even though Activin A has a positive effect on SOX10, it decreases level of PDGFRa and OLIG1. […] Moreover, SOX10 is one of the main transcription factors of oligodendrocytes, along with OLIG2 and NKX2-2, that has shown the potential to commit the stem cells to oligodendrocytes in reprogramming efforts (Wang et al. (2014) Proc Natl Acad Sci USA 111:E2885-94; Garciá-León et al. (2018) Stem Cell Reports 10:655-672). […] One of the main challenges of differentiating cells to oligodendrocyte fate is controlling the mixed population and increasing the purity of the culture by committing more cells to oligodendrocyte over neuronal identity. Therefore, DBZ was excluded from the final recipe.
At this point, we investigated the expression profile of a larger group of genes defining oligodendrocyte progenitor population at a later stage, including ID2, CNP and BCAN (Perlman et al. (2020). Glia 68:1291-1303; Goldman and Kuypers (2015) Development 142:3983-95). In this model, these genes were expressed at 1900, 660 and 44, respectively.

[2] = tested on: human pluripotent stem cells; assay: HD-DoE #2: 13-factor model, differentiation toward anterior neuroectoderm, gene expression; format: cell-based; details: model optimized for highest expression of FEZF2 at 4466; positive
Text: To further enhance the conditions for oligodendrocyte differentiation from pluripotency, we performed an additional HD-DoE experiment. We obtained additional gene regulatory models that were used for preparation of a differentiation protocol. The basis of this was a 13-factor HD-DoE experiment with focus on initiation of differentiation of cells toward anterior neuroectoderm. In this model, we focused on expression of FEZF2 and OTX2.
As shown in the results summarized in FIG. 4, the model was optimized for highest expression of OTX2 at 12755.9. According to the model of high expression of OTX2, seven effectors had positive contribution including MK2206, PD0325901, CHIR99021, LDN193189, Go6983, PD173074 and BLU9931 with highest factor contribution of 22.2 for MK2206 and lowest factor contribution of 1.7 for PD173074 and BLU9931.
As shown in the results summarized in FIG. 5, the model was optimized for highest expression of FEZF2 at 4466. When the model was optimized for maximum expression level of FEZF2, three effectors including LDN193189 with factor contribution of 19.5, PD0325901 with factor contribution of 14.6 and MK2206 with factor contribution of 12.3 were common with previous condition and three new effectors including purmorphamine-500 nM, XAV939 and SC79 were introduced.
As shown in the results summarized in FIG. 6, to fine-tune the recipe and find the optimum combination of factors for high expression of both OTX2 and FEZF2, dynamic profiling analysis was done. […] Therefore, these two factors were added to the optimized culture recipe.

stage 2 early-OPCs [3] = assay: HD-DoE 8-factor model for stage 3 (version 1) on stage 2 early-OPCs; format: cell-based, human
Procedure: (§1) To further differentiate the cells to an oligodendrocyte progenitor identity, additional HD-DoE experiments were performed on the cells that were cultured in stage 1 and stage 2 differentiation media. After 3 days, gene expression of cells in different combinatorial conditions were investigated. At this time, we focused on maximal expression of signature oligodendrocyte progenitor genes such as SOX10, OLIG1 and PDGFRa (Goldman and Kuypers (2015) Development 142:3983-95; Marques et al. (2016) Science 352:1326-1329). In one 8-factor model, individual and combinatorial effects of LDN193189, SUN 11602, Activin A, Biotin, TTNPB, Isoproterenol, linoleic acid and T3+T4 were tested.
The same model was also optimized for maximum expression of PDGFRa at 3510.9. Two factor specifically, TTNPB and Linoleic acid determined the expression level of PDGFRa with factor contribution of 71.6 and 22.1, respectively (FIG. 17). […] The model was also optimized for highest expression of SOX10 at 18.8. In this optimization, TTNPB was the only input that could elevate the expression level of the selected gene (FIG. 18).
Dynamic profile analysis was utilized to explore combination sets that can optimize expression of all three selected genes. […] Since Activin A is the main compound regulating expression level of OLIG1, we investigated the changes in the plots after addition of Activin A and observed that expression level of SOX10 is still in the target range and PDGFRa is expressed at a high level too (2520).

pre-OPCs = assay: HD-DoE 12-factor model for stage 2 (version 1), 3 days on stage 1 pre-OPCs; format: cell-based, human; details: optimized for maximum expression of OLIG2 at 1841.6
Text: To engineer the recipe of stage 2 of differentiation, cells were first cultured in the stage 1 media described in Example 1 and then treated with combinations of 8 or 12 factors for 3 days and the gene expression of cells in each condition was modeled. At this point, due to short duration of culture (only six days in vitro), we decided to focus on maximal expression of OLIG2 and maintenance of high expression of NKX2-2, while initiating expression of SOX10, OLIG1 and PDGFRa, to guide the cells towards oligodendrocyte fate (Emery and Lu (2015). Cold Spring Harb Perspect Biol. 7:a020461; Perlman et al. (2020). Glia 68:1291-1303; Goldman and. Kuypers (2015) Development 142:3983-95).
In one 12-factor model, the individual and combinatorial impact of SUN 11602 an agonist for FGF signaling pathway, FGF2, Activin A an activator of one of the receptors of TGF-b superfamily, A 8301, an inhibitor of TGF-b pathway, CHIR99021 a WNT activator, AGN193109 a RA antagonist, MK2206 an AKT inhibitor, Purmorphamine an agonist of SHH signaling pathway, AZD3147 an antagonist of mTOR pathway, MHY1485 an agonist of mTOR pathway, SC79 an agonist of AKT pathway and G06983 an inhibitor of PKC pathway, were tested.
Dynamic profile analysis was used to assess the expression levels of other genes of interests, such as NKX2-2, OLIG1 and SOX10, while the model is maximized for OLIG2. Activin A and SUN 11602 were brought down to zero due to their very low factor contribution. We observed when the model is optimized, the expression level of NKX2-2 is at 3000, PDGFRa at 1000, OLIG1 at 80 and SOX10 at 15 (FIG. 12).

[4] = tested on: human pluripotent stem cells; assay: HD-DoE #1: 8-factor model, 3-day treatment of pluripotent stem cells, gene expression; format: cell-based; details: for factor contribution: positive effect; for impact on NKX2-2 and OLIG2 expression levels: dynamic profile, 8-factor model
Text: This example utilizes a method of High-Dimensional Design of Experiments (HD-DoE), as previously described in Bukys et al. (2020) Iscience 23:101346. The method employs computerized design geometries to simultaneously test multiple process inputs and offers mathematical modeling of a deep effector/response space. The method allows for finding combinatorial signaling inputs that control a complex process, such as during cell differentiation. It allows testing of multiple plausible critical process parameters, as such parameters impact output responses, such as gene expression. Because gene expression provides hallmark features of the phenotype of, for example, a human cell, the method can be applied to identify, and understand, which signaling pathways control cell fate. In the current example, the HD-DOE method was applied with the intent to find conditions for induction of oligodendrocyte progenitor-expressed genes, directly from the pluripotent stem cell state.
Specifically, to develop a novel method to generate oligodendrocytes, the impact of agonists and antagonists of multiple signaling pathways (herein called effectors) were tested on expression of two sets of 53 pre-selected genes after a 3-day treatment. These effectors are small molecules that are commonly used during stepwise differentiation of stem cells to specific fates. Choice of the effectors were based on current literature on neural induction in anterior ectoderm and differentiation of stem cells to oligodendrocytes.
To test the effectors, experiments with at least 8 factors were designed that can assess the response of cells to 48 or more different combinations of effectors in a range of concentrations. To analyze the models, we focused on expression of genes expressed during early development of anterior neuroectoderm and oligodendrocytes including NKX2-2, OLIG2, OLIG1, and PDGFRA. The impact of each effector on gene expression level is defined by a parameter called factor contribution that is calculated for each effector during the modeling.
This model tested 8 factors: PD0325901, MK2206, TTNPB, SC79, MHY1485, ZM336372, AGN193109 and AZD3147.

[5] = tested on: cells cultured in stage 1 and stage 2 differentiation media; assay: HD-DoE 8-factor model for stage 3 (version 2); format: cell-based, human
Procedure: as §1, with “142:3983-95:” for “142:3983-95;”, “TTNPB (an RA agonist), CHIR99021, FGF-2, IGF-1, AGN193109, Purmorphamine, MHY1485 (a mTOR pathway agonist)” for “LDN193189, SUN 11602, Activin A, Biotin, TTNPB, Isoproterenol, linoleic acid”, “SC79 (an AKT pathway agonist)” for “T3+T4”, “tested to guide the cells toward a SOX10/PDGFRa positive population. […] CHIR99021 was also positive, with a factor contribution of 8.1 (FIG. 33).” for “tested.”
Other positive factors were IGF-1, with a factor contribution of 11.2, CHIR99021, with a factor contribution of 8.5 and TTNPB, with a factor contribution below 1 (FIG. 34).
To confirm the impact of TTNPB, FGF-2 and IGF-1 on a bigger scale, we investigated the expression profile of a larger group of genes defining late oligodendrocyte progenitor population, such as ID2, CSPG4, FYN, SOX8, PLP1 and BCAN (Perlman et al. (2020). Glia 68:1291-1303; Goldman and Kuypers (2015) Development 142:3983-95; van Tilborg et al. (2018) Glia 66:221-238) and neuronal genes such as NEUROD1, NEUROG1 and NEUROG2 in presence of IGF-1, FGF-2 or TTNPB.

[6] = optimized for maximum expression of OLIG1 at 256, positive impact
[7] = optimized for maximum expression of PDGFRa at 3510.9, positive
[8] = model optimized for maximum expression of NKX2-2
[9] = model optimized for maximum expression of PDGFRA

c1ccc2c(-c3cnn4cc(-c5ccc(N6CCNCC6)cc5)cnc34)ccnc2c1 [LDN193189]
factor contribution (stage 2 early-OPCs [1]; optimized for maximum expression of CSPG4 at 38.6, negative impact): 16.9 | factor contribution [2]: 19.5 | factor contribution (stage 2 early-OPCs [3]; [6]): 10.8

CCCCC/C=C\C/C=C\CCCCCCCC(=O)O [Linoleic acid]
factor contribution (stage 2 early-OPCs [3]; [7]): 22.1

O=[N+]([O-])c1ccc(Nc2nc(N3CCOCC3)nc(N3CCOCC3)n2)cc1 [MHY1485]
factor contribution (pre-OPCs; negative impact): 22.5 | factor contribution (stage 2 early-OPCs [1]; optimized for maximum expression of SOX10 at 54.7, positive): 11.49 and 11.5 | factor contribution [4, 8]: 13.8 | factor contribution [4, 9]: 13.4

O=C(NOC[C@H](O)CO)c1ccc(F)c(F)c1Nc1ccc(I)cc1F [PD0325901]
factor contribution [2]: 14.6 | impact on NKX2-2 and OLIG2 expression levels [4]: negatively impacting | factor contribution [4, 9]: 30.6 and 30.05

CCOC(=O)C1=C(N)Oc2ccc(Cl)cc2C1C(C#N)C(=O)OCC (centres unmarked) [SC79]
factor contribution (pre-OPCs; positive regulatory effect): 3.6 | factor contribution ([5]; optimized for SOX10 at 41.04, negative impact): 30.2 | factor contribution [4, 8]: 1.47

Cc1c(C)c(NCC(=O)N(C)C2CCN(Cc3ccc(C(N)=O)cc3)CC2)c(C)c(C)c1N [SUN 11602]
factor contribution (stage 2 early-OPCs [3]; [6]): 3.7

C/C(=C\c1ccc(C(=O)O)cc1)c1ccc2c(c1)C(C)(C)CCC2(C)C [TTNPB]
effect on late OPC genes and neuronal genes ([5]; factor plots vs concentration): negative effect of TTNPB on OPC genes and its positive effect on neuronal genes | factor contribution ([5]; optimized for SOX10 at 41.04, positive): 17.98 | factor contribution ([5]; optimized for maximum expression of PDGFRa at 853.4, positive): below 1 | factor contribution (stage 2 early-OPCs [1]; optimized for maximum expression of CSPG4 at 38.6, positive): 15.96 and 15.9 | factor contribution (stage 2 early-OPCs [3]; optimized for highest expression of SOX10 at 18.8, positive): 8 | factor contribution (stage 2 early-OPCs [3]; [6]): 19.11 and 19.1 | factor contribution (stage 2 early-OPCs [3]; [7]): 71.6 | factor contribution [4, 8]: 31.3 | factor contribution [4, 9]: 49.01

Cc1ccc(NC(=O)c2cccc(N(C)C)c2)cc1NC(=O)c1ccc(O)cc1 [ZM336372]
impact on NKX2-2 and OLIG2 expression levels [4]: negatively impacting | factor contribution [4, 9]: < 1
